Results taken from patent publication US6162610A, “Xanthan-ester and acridan substrates for horseradish peroxidase” (Tropix, Inc., priority 1998, dated 2000).

Assays:
[1] = biological target: T1, horseradish peroxidase (HRP, Type VIA) (Armoracia rusticana, UniProt P00433); assay: Comparison of Xanthene substrate (14) and Enhanced Chemiluminescence (ECL), HRP dilution series; assay type: biochemical; details: for RLU: Xanthene substrate with 4-phenylphenol, Emerald II, read after 40 minutes; for S/N: Xanthene substrate, 40 minutes
T1 sequence (P00433 31-338 limits assumed): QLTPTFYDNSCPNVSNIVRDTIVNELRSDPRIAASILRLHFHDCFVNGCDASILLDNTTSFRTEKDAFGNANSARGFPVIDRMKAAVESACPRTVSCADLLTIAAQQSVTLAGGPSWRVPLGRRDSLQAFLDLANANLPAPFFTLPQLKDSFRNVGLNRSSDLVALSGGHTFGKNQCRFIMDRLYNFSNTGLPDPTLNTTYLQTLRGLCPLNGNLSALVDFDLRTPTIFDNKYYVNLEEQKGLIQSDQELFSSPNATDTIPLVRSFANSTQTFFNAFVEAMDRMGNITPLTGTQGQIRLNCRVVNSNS
Method: The following conditions were used for the comparison of ECL(a commercially available optimized reagent containing Luminol-an amino-substituted cyclic acylhydrazide) and Xanthene substrate (14). ECL reagents were obtained from Amersham and were used as recommended by the manufacturer. Aliquots of horseradish peroxidase (HRP, Type VIA), 10 μL, containing 0,0.5, 5.0, 50.0, 500.0 and 5000.0 attomoles HRP were then added to 0.13 mL of each reagent formulation. To evaluate Xanthene substrate, hydrogen peroxide (10 μL of a 3.5 mM stock) was added to 10 μL of each HRP dilution and the reaction was initiated by addition of a solution of 0.12 mL of 1.17 mM Xanthene substrate in 0.1 M citrate buffer pH 7.0 containing 1.22 mM 4-phenylphenol, 0.42 mg/mL hydroxypropylmethylcellulose and 0.167 mg/mL Emerald II. The chemiluminescent signal was measured in a Dynatech ML3000 luminometer after 1 minute for ECL and 40 minutes for Xanthene substrate.

HRP [2] = biological target: T2, HRP (Armoracia rusticana, UniProt P00433); assay: Effect of detergents and polymers on chemiluminescent signal from xanthene substrate with HRP; assay type: biochemical, horseradish; details: 5 fmol HRP; for Signal + HRP: 19 min incubation
T2 sequence (P00433 31-338 limits assumed): T1 sequence (P00433 31-338 limits assumed)
Method: (§1) Detergent was added to the buffer solution to increase the solubility of the assay components. The use of polymeric quaternary amines, neutral detergents and cationic detergents was compared using polyvinylbenzyltributylammonium chloride (Sapphire II, Tropix), Tween-20 (Sigma) and […] (CTAB, Sigma). Luminescence was measured in white opaque microplate wells using a Dynatech ML3000 luminometer. First, background signal was measured after the addition of hydrogen peroxide (10 μL of 3.5 mM stock solution) to 0.12 mL of 1.17 mM xanthene substrate (14) in 0.1 M citrate buffer pH 7.0 containing, 0.42 mg/mL hydroxypropylmethylcellulose and 4-iodophenol (iodophenol concentration was 71.4 μg/mL for the Sapphire II and Tween-20 solutions and 178.6 μg/mL for the CTAB solution) after a 19 minute incubation. HRP, 10 μL containing 5 fmol, was added to each well and the chemiluminescence was measured after a 19 min incubation.

HRP [3] = assay: as above; assay type: biochemical, horseradish; details: H2O2, no HRP, 19 minute incubation, citrate buffer pH 7.0
Method: as §1

[4] = Tween-20, 4-iodophenol 71.4 μg/mL

- RLU ([1]; HRP 0.5 amol): 14.12 RLU
- S/N ([1]; HRP 0.5 amol): 1.11
- RLU ([1]; HRP 5 amol): 17.52 RLU
- S/N ([1]; HRP 5 amol): 1.37
- RLU ([1]; HRP 50 amol): 63.12 RLU
- S/N ([1]; HRP 50 amol): 4.95
- RLU ([1]; HRP 500 amol): 353.31 RLU
- S/N ([1]; HRP 500 amol): 27.70
- RLU ([1]; HRP 5000 amol): 740.51 RLU
- S/N ([1]; HRP 5000 amol): 58.06
- S/N (HRP [2]; CTAB): 1.5
- Signal + HRP (HRP [2]; CTAB, 4-iodophenol 178.6 μg/mL): 3.78
- S/N (HRP [2]; Sapphire II): 15.4
- Signal + HRP (HRP [2]; Sapphire II, 4-iodophenol 71.4 μg/mL): 229.05
- S/N (HRP [2]; Tween-20): 1.8
- Signal + HRP (HRP [2]; [4]): 0.0439
SMILES: O=C(Oc1ccccc1)C1c2ccccc2Oc2cc(O)ccc21 (stereo not shown) [compound 14, 3-Hydroxy-9H-9-xanthene-carboxylic acid, phenyl ester]
- Background (HRP [3]; CTAB, 4-iodophenol 178.6 μg/mL): 2.45
- Background (HRP [3]; Sapphire II (polyvinylbenzyltributylammonium chloride), 4-iodophenol 71.4 μg/mL): 14.83
- Background (HRP [3]; [4]): 0.0242
